From US20070207202A1, “PHARMACEUTICAL FORMULATIONS OF A MONOHYDRATE CRYSTAL FORM OF 2-(3-FLUORO-4-HYDROXYPHENYL)-7-VINYL-1,3-BENZOXAZOL-5-OL” (Wyeth, priority 2006, published 2007)

Legend:
Format in all cases: physicochemical
[1] = Dynamic vapor sorption (hygroscopicity); details: for DVS gain: 0–90% RH
Source text: Dynamic Vapor Sorption (Allentown, Pa.) was used to measure the hygroscopicity of the anhydrate and monohydrate of the invention (see FIGS. 6 and 7). The step conditions were three hours each at 0%, 30%, 52.5%, 75% and 90% RH, two full cycles.

[2] = Separate long term study of micronized and non-micronized anhydrate (XRPD)
[3] = Water solubility of the two crystal forms
[4] = Long term stability of crystal forms (XRPD, TGA, HPLC); details: non-micronized, 40° C./75% RH (monohydrate also 40° C. without humidity control), three months
Protocol: Non-micronized samples of monohydrate and anhydrate were stored at 40° C./75% RH for three months. The monohydrate was also stored at 40° C. without humidity control. During the three months, the samples were checked after two weeks, one month, two months, and three months.

[5] = Medium term stability of crystal form (XRPD and TGA)
Protocol: Samples of monohydrate were stored at room temperature, 56° C., and 70° C. for one week. At room temperature, humidity was maintained at 0% RH. Humidity was not controlled for the higher temperatures.
The samples were analyzed by XRPD and TGA.

[6] = Short term stability of crystal form (XRPD)

## C=Cc1cc(O)cc2nc(-c3ccc(O)c(F)c3)oc12 [anhydrate, 2-(3-fluoro-4-hydroxyphenyl)-7-vinyl-1,3-benzoxazol-5-ol]
[1]; listed as anhydrous crystal form
  DVS gain: 0.2% gain (0–90% RH)
[2]; micronized samples, 25° C./60% RH, three months
  crystal form transformation by XRPD: did not transform to the monohydrate
[2]; micronized samples, 40° C./75% RH, one month
  crystal form transformation by XRPD: partially transform to the monohydrate
[2]; non-micronized samples, 40° C./75% RH
  crystal form transformation by XRPD: did not show any obvious transformation

## C=Cc1cc(O)cc2nc(-c3ccc(O)c(F)c3)oc12 [monohydrate, 2-(3-fluoro-4-hydroxyphenyl)-7-vinyl-1,3-benzoxazol-5-ol]
[3]
  water solubility compared between the two forms (in words): significantly lower solubility than the anhydrate
[1]
  hygroscopicity (DVS weight gain, in words): largely non-hygroscopic
[1]; listed as monohydrate crystal form
  DVS gain: 0.1% gain (0–90% RH)
[4]
  chemical stability by HPLC: chemically stable
  crystal form transformation by XRPD and TGA: did not transform
[5]; 56° C., humidity not controlled, one week
  crystal form stability by XRPD and TGA: no obvious dehydration
[5]; 70° C., humidity not controlled, 1 day
  crystal form stability by XRPD and TGA: no obvious hydration
[5]; 70° C., humidity not controlled, 4 days
  crystal form stability by XRPD and TGA: partially dehydrated
[5]; 70° C., humidity not controlled, 7 days
  crystal form stability by XRPD and TGA: mostly dehydrated
[5]; room temperature, 0% RH, one week
  crystal form stability by XRPD and TGA: no obvious dehydration
[6]; 70° C., one hour
  crystal form stability by XRPD: stable
[6]; 90° C., one half hour
  crystal form stability by XRPD: partially dehydrated
[6]; 90° C., one hour
  crystal form stability by XRPD: completely dehydrated
